Earlier results in publication PMC7395068, “The evolution of strategies to minimise the risk of human drug-induced liver injury (DILI) in drug discovery and development” (Archives of Toxicology, 2020).
Like-named read-outs stand apart in the source and are kept apart here.

Legend:
[1] = cited from earlier work
hu-MPCC = conditions: cited from earlier work
[2] = tested on: primary human hepatocytes, NIH3T3 fibroblasts, BSEP, CYP3A4; conditions: In vitro Assay; ref Schadt 2015; cited from earlier work
[3] = cited from earlier work; remark: listed apart in the source
RMPCC's = conditions: cited from earlier work
HepG2 cells [4] = conditions: cited from earlier work
human hepatocytes = conditions: cited from earlier work
[5] = tested on: THLE-Null and THLE-3A4 cells; conditions: In vitro Assay; ref Gustafsson 2014; cited from earlier work
[6] = tested on: THLE or HepG2 cells, isolated mitochondria, BSEP; conditions: In vitro Assay; ref Aleo 2019; cited from earlier work
[7] = tested on: HepG2 C3A spheroid, BSEP, Glu/Gal in HepG2 cells, bioactivation; conditions: cited from earlier work
PHH = conditions: cited from earlier work
hLiMTs = conditions: cited from earlier work
[8] = ref Chen 2011; cited from earlier work
HepG2 cells [9] = conditions: cited from earlier work; remark: listed apart in the source
PHH spheroids = conditions: In vitro Assay; ref Vorrink 2018; cited from earlier work
[10] = tested on: HepG2 cells, primary human hepatocytes; conditions: cited from earlier work
[11] = tested on: isolated mouse liver mitochondria; conditions: In vitro Assay; ref Porceddu 2012; cited from earlier work
rBsep = conditions: In vitro Assay; ref Dawson 2012; cited from earlier work
[12] = In vitro Assay, ref Khetani 2012
[13] = In vitro Assay, ref O'Brien 2006
[14] = In vitro Assay, ref Proctor 2017
[15] = In vitro Assay, ref Garside 2014
[16] = In vitro Assay, ref Persson 2013

Row | Structure (SMILES) | DILI +VE (5-8), DILI -VE (-4) ([1]; ref Chen 2016) | DILI severity category ([1]; ref Chen 2016) | HMPCC's (hu-MPCC; [12]) | Cellular toxicity (3T3 cells) [2] | Combined Assay [2] | GSH adduct HML [2] | Hepatocyte cellular toxicity [2] | MitoTox 3T3 [2] | TDI CYP3A4 [2] | In vivo DILI ([3]; ref Khetani 2012) | In vivo DILI ([3]; ref Xu 2008) | RMPCC's (RMPCC's; [12]) | Structural based (HCI) (human hepatocytes; In vitro Assay, ref Xu 2008) | Partition Hybrid HRM Score [6] | Ro2 Hybrid HRM Score [6] | In vivo DILI ([3]; […]) | In vivo DILI ([3]; ref Aleo 2019) | In vivo DILI ([3]; ref Vorrink 2018) | DILI Score (FDA) (1-8) [8] | hLiMTs ATP <20 x Cmax (PHH spheroids) | further results
1 | CC(=O)Oc1ccccc1C(=O)O [aspirin] | +VE | vLess-DILI-Concern | -VE | -VE | -VE | -VE | -VE | -VE | -VE | -VE | -VE | -VE | -VE |  |  |  |  |  |  |  | hBSEP inhibition [2]: -VE; In vivo DILI ([3]; ref O'Brien 2006): +VE; In vivo DILI ([3]; ref Schadt 2015): -VE; Structural based (HCI) (HepG2 cells [4]; [13]): +VE
2 | CCc1oc2ccccc2c1C(=O)c1cc(Br)c(O)c(Br)c1 [benzbromarone] | +VE | vMost-DILI-Concern | +VE |  |  |  |  |  |  | +VE | +VE | +VE | +VE | +VE | +VE | +VE | +VE |  |  |  | THLE-Null [5]: +VE; THLE-Null/3A4 [5]: +VE; In vivo DILI ([3]; ref Gustafsson 2014): +VE; In vivo DILI ([3]; ref Proctor 2017): +VE; In vivo DILI ([3]; ref Williams 2019): +VE; Bayesian Machine Learning ([7]; In vitro Assay, ref Williams 2019): +VE; PHH ATP <100uM (PHH; [14]): +VE (IC50 threshold of 100 µM); hLiMTs ATP <100uM (hLiMTs; [14]): +VE (IC50 threshold of 100 µM)
3 | CNCCC(Oc1ccc(C(F)(F)F)cc1)c1ccccc1 (centres unmarked) [fluoxetine] | +VE | vLess-DILI-Concern |  | +VE | -VE | -VE | -VE | -VE | -VE | -VE | -VE |  |  |  |  | -VE | +VE | -VE | 3 | -VE | HMPCC's (hu-MPCC): -VE; hBSEP inhibition [2]: -VE; In vivo DILI ([3]; ref Garside 2014): +VE; In vivo DILI ([3]; ref Persson 2013): +VE; In vivo DILI ([3]; ref Proctor 2017): +VE; In vivo DILI ([3]; ref Schadt 2015): -VE; In vivo DILI ([3]; ref Tolosa 2012): +VE; In vivo DILI ([3]; ref Williams 2019): +VE; RMPCC's (RMPCC's): -VE; Bayesian Machine Learning [7]: +VE; Cluser analysis (HepG2 cells [9]): +VE; PHH ATP <100uM (PHH): -VE; hLiMTs ATP <100uM (hLiMTs): +VE (key: +VE: IC50 threshold of 100 µM); Cluster 1-6 +VE Assay [10]: +VE; Structural based (HCI) (human hepatocytes): -VE
4 | CC(C(=O)O)c1ccc(-c2ccccc2)c(F)c1 (centres unmarked) [flurbiprofen] | -VE | Ambiguous DILI-concern | +VE | -VE | -VE | -VE | -VE | -VE | -VE | +VE | +VE | +VE | +VE | +VE | +VE |  |  |  | 3 |  | THLE-Null [5]: -VE; THLE-Null/3A4 [5]: -VE; hBSEP inhibition [2]: -VE; In vivo DILI ([3]; ref Garside 2014): +VE; In vivo DILI ([3]; ref Gustafsson 2014): +VE; In vivo DILI ([3]; ref Schadt 2015): -VE; Cluster 1-6 +VE Assay [10, 15]: -VE
5 | CCN(CC)CC(=O)Nc1c(C)cccc1C [lidocaine] |  |  | +VE |  |  |  |  |  |  |  |  | +VE |  |  |  |  |  |  |  |  | Cluser analysis (HepG2 cells [9]; [16]): -VE; Structural based (HCI) (HepG2 cells [9]; [16]): -VE; in vitro data EC20<=2uM [11]: +VE; Structural based (HCI) (HepG2 cells [4]; [13]): +VE
6 | Cc1cccc(Nc2ccccc2C(=O)O)c1C [mefenamic acid] | +VE | vMost-DILI-Concern | +VE |  |  |  |  |  |  | +VE | +VE | +VE | +VE |  |  | +VE |  | +VE |  | +VE (IC20 < 20 × Cmax.tot cut-off) | In vivo DILI ([3]; ref Porceddu 2012): +VE; In vivo DILI ([3]; ref Proctor 2017): -VE; in vitro data EC2<=1x Cmax [11]: +VE; in vitro data EC20<=2uM [11]: +VE; PHH ATP <100uM (PHH; [14]): +VE (IC50 threshold of 100 µM); hLiMTs ATP <100uM (hLiMTs; [14]): +VE (IC50 threshold of 100 µM)
7 | Cn1cc[nH]c1=S [methimazole] |  |  | -VE |  |  |  |  |  |  |  |  | -VE |  | -VE | -VE |  |  |  |  |  | Inhibition of rBsep cutoff<1& cmax u>.2 (rBsep): -VE; Inhibition of rBsep cutoff<3 (rBsep): -VE
8 | CNCCC=C1c2ccccc2CCc2ccccc21 [nortriptyline] | +VE | vMost-DILI-Concern | +VE |  |  |  |  |  |  | +VE | +VE | +VE | -VE | +VE | +VE |  | +VE | +VE | 8 | +VE (IC20 < 20 × Cmax.tot cut-off) | 
9 | CN1C(C(=O)Nc2ccccn2)=C(O)c2ccccc2S1(=O)=O [piroxicam] | +VE | vLess-DILI-Concern | -VE | -VE | -VE | -VE | -VE | -VE | -VE | +VE | +VE | +VE | -VE | -VE | +VE | +VE | +VE | +VE | 3 | -VE | hBSEP inhibition [2]: -VE; In vivo DILI ([3]; ref O'Brien 2006): +VE; In vivo DILI ([3]; ref Persson 2013): +VE; In vivo DILI ([3]; ref Porceddu 2012): +VE; In vivo DILI ([3]; ref Schadt 2015): -VE; Cluser analysis (HepG2 cells [9]; [16]): -VE; Structural based (HCI) (HepG2 cells [9]; [16]): -VE; in vitro data EC2<=1x Cmax [11]: +VE; in vitro data EC20<=2uM [11]: +VE; Structural based (HCI) (HepG2 cells [4]; [13]): +VE
10 | CC(=O)[C@H]1CC[C@H]2[C@@H]3CCC4=CC(=O)CC[C@]4(C)[C@H]3CC[C@]12C [progesterone] | +VE | vLess-DILI-Concern | -VE |  |  |  |  |  |  | +VE | +VE | -VE | -VE |  |  | -VE |  | -VE |  | -VE | 
11 | NC(=O)c1cnccn1 [pyrazinamide] | +VE | vLess-DILI-Concern | +VE |  |  |  |  |  |  | +VE | +VE | -VE | -VE | +VE | -VE | +VE | +VE |  | 3 |  | In vivo DILI ([3]; ref Garside 2014): +VE; In vivo DILI ([3]; ref O'Brien 2006): +VE; In vivo DILI ([3]; ref Porceddu 2012): +VE; in vitro data EC2<=1x Cmax [11]: +VE; in vitro data EC20<=2uM [11]: +VE; Structural based (HCI) (HepG2 cells [4]; [13]): +VE; Cluster 1-6 +VE Assay [10, 15]: -VE
12 | C=C[C@H]1C[N@@]2CC[C@H]1C[C@H]2[C@H](O)c1ccnc2ccc(OC)cc12 [quinine] |  |  |  |  |  |  |  |  |  |  |  |  |  |  |  |  |  |  |  | +VE (IC20 < 20 × Cmax.tot cut-off) | DILI +VE (5-8), DILI -VE (-4) ([1]; in vivo): +VE; DILI severity category ([1]; in vivo): vLess-DILI-Concern; HMPCC's (hu-MPCC): +VE; In vivo DILI ([3]; in vivo): +VE; RMPCC's (RMPCC's): +VE; Structural based (HCI) (HepG2 cells [4]): +VE
13 | O=c1n(CCCN2CCN(c3cccc(Cl)c3)CC2)nc2ccccn12 [trazodone] | +VE | vLess-DILI-Concern | +VE |  |  |  |  |  |  | +VE | +VE | +VE | +VE | +VE | +VE |  | +VE | +VE | 5 | +VE (IC20 < 20 × Cmax.tot cut-off) | 
